Source: US7723023B2, “Use of intrinsic reporters of cell signaling for high content drug profiling and toxicity screening” (Mount Sinai School of Medicine, priority 2001, dated 2010)

Test system: GnRHR-expressing LβT2 gonadotrope cell line
Assay: SYBR green real-time PCR of transcripts regulated by GnRH in LβT2 cells
Type: cell-based, mouse
Conditions: 1 hour
Procedure: Cell Culture and Sample Preparation: LβT2 cells were obtained and maintained at 37° C. in 5% CO2 in humidified air in DMEM (Mediatech) containing 10% fetal bovine serum (Gemini). For experiments. 40-50×10^6 cells were seeded in 15 cm dishes. The medium was replaced 21 hours later with DMEM containing 25 mM HEPES (Mediatech) and glutamine. 18 hours later, the cells were treated with 100 nM GnRH or vehicle and were returned to the CO2 incubator for 1 hour. The incubation was stopped by aspirating the incubation medium and adding 10 ml of lysis buffer (4M guanidinium thiocyanate, 25 mM sodium citrate, pH 7.0, 0.5% N-lauroyl-sarcosine, and 0.1 M 2-mercaptoethanol). Total RNA was isolated according to the method of Chomczynski and Sacchi (1987) supra. Approximately 400 μg total RNA was obtained from each plate.
Real Time PCR. The protocol of Example 1 above, was used. Briefly, […] total RNA was converted into cDNA and […] (approximately 500 pg) was utilized for 40 cycle three-step PCR in an ABI Prism 7700 with 20 mM Tris pH 8.4, 50 mM KCL, 3 mM MgCl2, 200 μM dNTPs, 0.5×SYBR® green (Molecular Probes), […] primer and 0.5 U Platinum Taq (Life Technologies). Amplicon size and reaction specificity was confirmed by agarose gel electrophoresis. The number of target copies in each sample was interpolated from its detection threshold (CT) value using a plasmid or purified PCR product standard curve included on each plate. The sequence of the 60 primer sets utilized can be found in supplementary material. Each transcript in each sample was assayed 5 times and the median CT values were used for analysis.
Confirmation of Gene Regulation by Real-Time PCR. The measurement accuracy of the microarray and the biological variability of the transcriptional program identified was evaluated through a validation study comprising real time PCR assays of 60 transcripts, including 26 genes that met the threshold for regulation in the microarray assay. To generate accurate and precise reference measurements of these genes, 5 measurements were made of each gene in each RNA sample and the measurements were calibrated with a standard curve included on each PCR plate (FIG. 4). Nine experimental pairs of vehicle and GnRH-treated cultures were tested, including the microarray assayed samples. 100% (17 of 17) of the gene changes showing >1.6-fold change on the microarray and 66% (6 of 9) of gene changes showing between 1.3 and 1.6-fold changes were confirmed by PCR. […] Because the threshold was set at a 1.3-fold change, these genes are considered to be not confirmed (see discussion below).

[1] = 100 nM GnRH vs vehicle, LβT2 cells
[2] = gene did not meet the criteria on the microarray, 100 nM GnRH

For gonadotropin releasing hormone [GnRH], the “1κB fold-change, SYBR PCR (n = 9)” value [1] was 2.6 ± 0.2 fold, the “Egr1 fold-change, SYBR PCR (n = 9)” value [1] was 390.6 ± 83.9 fold and the “Egr2 fold-change, SYBR PCR (n = 9)” value [1] was 294.7 ± 35.6 fold. For the same substance, the “Gem fold-change, SYBR PCR (n = 9)” value [1] was 4.3 ± 0.3 fold, the “HSP30 fold-change, SYBR PCR (n = 9)” value [1] was 1.9 ± 0.2 fold and the “Klf4 fold-change, SYBR PCR (n = 9)” value [1] was 2.9 ± 0.3 fold. For the same substance, the “Klf-like EST fold-change, SYBR PCR (n = 9)” value [1] was 2.5 ± 0.2 fold, the “LRG21 fold-change, SYBR PCR (n = 9)” value [1] was 96.8 ± 15.7 fold and the “MKP1/3CH134 fold-change, SYBR PCR (n = 9)” value [1] was 3.4 ± 0.4 fold. The “NMDMC fold-change, SYBR PCR (n = 9)” value [1] was 1.6 ± 0.3 fold, the “Nr4a1/nur77 fold-change, SYBR PCR (n = 9)” value [1] was 49.4 ± 10.1 fold and the “Nrf2 fold-change, SYBR PCR (n = 9)” value [1] was 1.5 ± 0.1 fold. For the same substance, the “PRL1 fold-change, SYBR PCR (n = 9)” value [1] was 2.1 ± 0.1 fold, the “Period1 fold-change, SYBR PCR (n = 9)” value [1] was 4.9 ± 1.1 fold and the “Rgs2 fold-change, SYBR PCR (n = 9)” value [1] was 8.7 ± 0.4 fold. For the same substance, the “TSC22 fold-change, SYBR PCR (n = 9)” value [1] was 3.3 ± 0.2 fold, the “c-fos fold-change, SYBR PCR (n = 9)” value [1] was 52.0 ± 5.8 fold and the “c-jun fold-change, SYBR PCR (n = 9)” value [1] was 6.6 ± 0.9 fold. For the same substance, the “gly96 fold-change, SYBR PCR (n = 9)” value [1] was 3.8 ± 0.5 fold, the “ler2/Pip92 fold-change, SYBR PCR (n = 9)” value [1] was 17.1 ± 2.4 fold and the “transgelin fold-change, SYBR PCR (n = 9)” value [1] was 1.8 ± 0.2 fold. The “β-actin fold-change, SYBR PCR (n = 9)” value [1] was 1.6 ± 0.1 fold, the “γ-actin fold-change, SYBR PCR (n = 9)” value [1] was 3.9 ± 0.4 fold and the “SCL regulation by real-time PCR” value [2] was 2.4 fold. For the same substance, the “STY kinase regulation by real-time PCR” value [2] was 1.7 fold and the “glucose transport protein regulation by real-time PCR” value [2] was 2.2 fold.
